From patent EP1005446B1, “N-AROYLPHENYLALANINE DERIVATIVES” (priority 1997, dated 1999) come the findings set out here.

The target of the assay is T1, VLA-4 (α4β1 integrin) (Homo sapiens, UniProt P05556+P13612).
T1 construct: followed by 10 µl of Ramos cell-derived VLA-4; endogenous in cells; host or cells: Ramos cells (VLA-4 preparation derived from the cells)
In words: VLA-4 / VCAM-1 Screening Assay (solid-phase, dual antibody ELISA). Conditions: inhibition of binding of Ramos cell-derived VLA-4 to immobilized recombinant human VCAM-1. On the procedure: VLA-4 / VCAM-1 Screening Assay
VLA-4 antagonist activity, defined as ability to compete for binding to immobilized VCAM-1, was quantitated using a solid-phase, dual antibody ELISA. VLA-4 (α4β1 integrin) bound to VCAM-1 was detected by a complex of anti-integrin β1 antibody: HRP-conjugated anti-mouse IgG: chromogenic substrate (K-Blue). Initially, this entailed coating 96 well plates (Nunc Maxisorp) with recombinant human VCAM-1 (0.4 µg in 100 µl PBS), sealing each plate and then allowing the plates to stand at 4°C for ^~18 hr.
(In general: In an ELISA, binding on a coated surface is turned into a signal by an enzyme label.)

Each structure is given as a SMILES string.

T1 sequence (P13612 34-1032): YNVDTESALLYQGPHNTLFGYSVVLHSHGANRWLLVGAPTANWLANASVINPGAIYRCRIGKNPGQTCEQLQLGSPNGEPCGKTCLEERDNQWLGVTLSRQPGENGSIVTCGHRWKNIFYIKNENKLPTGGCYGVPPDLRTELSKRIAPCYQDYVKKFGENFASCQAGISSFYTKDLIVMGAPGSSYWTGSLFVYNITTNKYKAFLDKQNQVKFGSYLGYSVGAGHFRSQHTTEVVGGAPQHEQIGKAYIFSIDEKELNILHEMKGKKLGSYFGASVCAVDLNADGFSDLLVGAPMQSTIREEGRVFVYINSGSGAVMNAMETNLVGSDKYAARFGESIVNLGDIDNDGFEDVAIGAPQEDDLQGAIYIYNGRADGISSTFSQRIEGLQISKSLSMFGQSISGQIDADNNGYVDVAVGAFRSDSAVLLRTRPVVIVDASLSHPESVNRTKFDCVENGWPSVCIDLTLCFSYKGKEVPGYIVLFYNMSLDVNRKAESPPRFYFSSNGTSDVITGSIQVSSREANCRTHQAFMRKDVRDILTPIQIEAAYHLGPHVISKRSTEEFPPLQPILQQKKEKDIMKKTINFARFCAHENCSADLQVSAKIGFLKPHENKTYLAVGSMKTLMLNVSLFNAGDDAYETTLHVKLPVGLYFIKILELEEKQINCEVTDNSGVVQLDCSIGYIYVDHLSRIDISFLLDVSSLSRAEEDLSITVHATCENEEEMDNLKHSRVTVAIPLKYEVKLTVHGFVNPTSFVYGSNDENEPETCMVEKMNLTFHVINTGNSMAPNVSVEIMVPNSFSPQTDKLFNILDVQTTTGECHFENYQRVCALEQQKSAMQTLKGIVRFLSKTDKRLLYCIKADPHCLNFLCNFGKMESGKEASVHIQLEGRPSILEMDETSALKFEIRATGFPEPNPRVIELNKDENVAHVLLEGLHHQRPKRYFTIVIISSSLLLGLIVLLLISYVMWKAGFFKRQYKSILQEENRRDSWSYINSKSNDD
T1 sequence (P05556 21-798): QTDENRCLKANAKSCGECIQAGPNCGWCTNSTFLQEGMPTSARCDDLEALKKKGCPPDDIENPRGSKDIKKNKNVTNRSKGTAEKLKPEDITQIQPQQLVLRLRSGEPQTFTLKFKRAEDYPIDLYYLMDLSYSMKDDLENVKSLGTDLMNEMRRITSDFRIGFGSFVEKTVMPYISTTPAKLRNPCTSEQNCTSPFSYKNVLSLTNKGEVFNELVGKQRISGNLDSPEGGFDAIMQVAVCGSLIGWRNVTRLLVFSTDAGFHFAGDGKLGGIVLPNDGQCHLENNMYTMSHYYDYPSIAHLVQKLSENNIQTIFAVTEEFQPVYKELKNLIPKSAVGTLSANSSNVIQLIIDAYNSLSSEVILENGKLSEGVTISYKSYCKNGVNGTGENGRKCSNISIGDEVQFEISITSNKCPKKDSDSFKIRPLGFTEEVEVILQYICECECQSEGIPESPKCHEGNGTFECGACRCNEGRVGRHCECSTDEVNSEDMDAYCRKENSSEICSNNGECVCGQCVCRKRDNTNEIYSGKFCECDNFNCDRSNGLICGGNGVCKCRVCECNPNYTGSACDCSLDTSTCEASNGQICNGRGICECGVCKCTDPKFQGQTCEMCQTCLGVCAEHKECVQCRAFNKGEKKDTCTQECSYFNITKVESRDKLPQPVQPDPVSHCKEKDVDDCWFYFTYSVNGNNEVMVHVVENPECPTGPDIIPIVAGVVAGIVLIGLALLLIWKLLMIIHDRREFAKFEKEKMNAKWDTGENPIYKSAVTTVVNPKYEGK

In the case of `COCCC1(C(=O)N[C@@H](Cc2ccc(NC(=O)c3c(Cl)cccc3Cl)cc2)C(=O)O)CCCC1` [Example 59, 4-[[(2,6-dichlorophenyl)carbonyl]amino]-N-[[1-(2-methoxyethyl)cyclopentyl]carbonyl]-L-phenylalanine], the IC50 stood at 0.26 nM.

A word on the IC50: it is the concentration at which inhibition is half-maximal.
